Test results reported in US7098241B2, “Thiophene hydroxamic acid derivatives” (Hoffmann-La Roche Inc., priority 2002, dated 2006).

Tests used:
[1] = system: HT-29 cells (human colon carcinoma cell line); assay: MTT anti-proliferation assay on HT-29 cells; type: cell-based; conditions: Homo sapiens, 120 h, 384 well plates, 5 days, read-out: IC50 HT29 384
Excerpt: MTT (3-(4,5-dimethylthiazol-2-yl)-2,5-diphenyl tetrazolium bromide) is widely used for the quantitative determination of cytotoxic effects or in vitro chemosensitivity of tumor cells. The assay is based on the cleavage of the yellow tetrazolium salt (MTT) to purple formazan crystals by metabolic active cells. For details, see Rubinstein, L. V., et al., J. Natl. Cancer Inst. 82 (1990) 1113.
We proceeded as follows: HT-29 cells (human colon carcinoma cell line) were cultivated in RPMI 1640, 2.5% FCS, 2 mM glutamine, 100 u/ml penicillin, 100 ug/ml streptomycin. For the assay the cells were seeded in 384 well plates, 900 cells per well, in the same medium. At the next day, the compounds (dissolved 10 mM in DMSO) were added in various concentrations ranging from 30 uM to 1.5 nM. After 5 days, the MTT assay was done mainly according to the instructions of the manufacturer (Cell proliferation kit I, MTT, from Roche Molecular Biochemicals). In brief: MTT labeling reagent was added to a final concentration of 0.5 mg/ml, added and incubated for 4 hrs at 37° C., 5% CO2. During this incubation time purple formazan crystals are formed. After addition of the solubilization solution (20% SDS in 0.02 M HCl) the plates were incubated overnight at 37° C., 5% CO2. After careful mixing, the plates were measured in Victor 2 (scanning multiwell spectrophotometer, Wallac) at 550 nm.
A decrease in number of living cells results in a decrease in the total metabolic activity in the sample. The decrease directly correlates to the amount of purple color resulting from the solubilization of the purple formazan crystals. Determination of IC50 was done using XL-fit.

recombinant HDAC-1 = target: T1, recombinant HDAC-1 (Homo sapiens, UniProt Q13547); assay: HDAC biochemical quench assay; conditions: recombinant HDAC-1 purified from HEK 293 cells, 1 uM peptide substrate, 90 min at room temperature
T1 construct: made in house; host or cells: HEK 293 cells
Excerpt: The function of histone deacetylase (HDAC) is the deacetylation of lysines in e.g. histone H4. A peptide of 17 amino acids derived from histone H4 was labeled with TAMRA at the C-terminus and QSY-7 at the N-terminus and was used as a substrate (TAMRA-first17 aa of histone H4-QSY7). Following deacetylation by HDAC, the enzyme Lys C is able to cleave the peptide after lysine. […] Inhibition of HDAC by compounds results in low signals because Lys C could not cleave the substrate and the quench effect persists.
For dose response curves, 10 concentrations were diluted 1:3 starting at 30 uM. 10 ul compound dilution were put into each well of a 384 well plate. 10 ul HDAC were added (recombinant HDAC-1 purified from HEK 293 cells; enzyme activity has to be assessed for each preparation). 10 ul peptide substrate was added (1 uM final concentration, derived from 1 mM stock solution diluted 1:1000 in test buffer). After 90 min incubation at room temperature, the reaction was stopped by addition of 20 ul test buffer including 3 ug/ml Lys C and 0.075% SDS. After overnight incubation the fluorescence signal of TAMRA was measured (Victor 2 from Wallac, absorption 544 nm, emission 590 nm). The O.D. of DMSO-treated control wells is 100%, the % inhibition of compound treated wells is calculated in relation to 100%. Based on 10 concentrations a IC50 curve is generated by using XL.fit3.
Test buffer used: a mixture of 10 mM Hepes pH8, 10 mM NaCl, 10% Glycerol, 0.005% Triton X100, 0.1 mM EDTA, 0.1 mM TCEP. As plates were used 384 well plates (black, Greiner, 781077).

T1 sequence (Q13547 whole entry, species assumed): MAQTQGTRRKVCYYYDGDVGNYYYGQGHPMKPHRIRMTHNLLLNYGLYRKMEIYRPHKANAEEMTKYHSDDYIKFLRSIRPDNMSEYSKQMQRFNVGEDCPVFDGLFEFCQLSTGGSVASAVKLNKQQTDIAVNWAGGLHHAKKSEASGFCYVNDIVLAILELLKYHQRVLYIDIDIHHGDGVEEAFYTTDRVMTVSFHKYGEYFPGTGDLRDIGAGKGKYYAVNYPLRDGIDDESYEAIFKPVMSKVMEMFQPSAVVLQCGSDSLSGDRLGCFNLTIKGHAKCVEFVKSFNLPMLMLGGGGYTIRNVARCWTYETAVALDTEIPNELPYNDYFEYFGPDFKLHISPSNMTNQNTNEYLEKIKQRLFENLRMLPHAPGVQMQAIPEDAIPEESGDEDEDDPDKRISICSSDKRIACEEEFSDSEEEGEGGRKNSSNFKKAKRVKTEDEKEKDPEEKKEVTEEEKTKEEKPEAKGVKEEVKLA

| SMILES | IC50 [1] | IC50 (recombinant HDAC-1) |
| --- | --- | --- |
| O=C(NO)c1ccc(C(=O)N[C@@H](Cc2ccccc2)c2ccccc2)s1 [Example 10f, (S)-thiophene-2,5-dicarboxylic acid 2-[(1,2-diphenyl-ethyl)-amide]5-hydroxyamide] | 40 nM | 0.58 nM |
| C[C@@H](NC(=O)c1ccc(C(=O)NO)s1)c1cccs1 [Example 7, (R)-Thiophene-2,5-dicarboxylic Acid 2-hydroxyamide 5-[(1-thiophen-2-yl-ethyl)-amide]] | 60 nM | 1.66 nM |
| C[C@@H](NC(=O)c1ccc(C(=O)NO)s1)c1cccc2ccccc12 [Example 2e, (R)-thiophene-2,5-dicarboxylic acid 2-hydroxyamide 5-[(1-naphthalen-1-yl-ethyl)-amide]] | 40 nM | 1.73 nM |
